Target: Klenow fragment of DNA polymerase I (Escherichia coli, UniProt P00582)
Experiment: competitive fluorescence anisotropy displacement of dtC^OTP
Assay type: binding

Sequence of Klenow fragment of DNA polymerase I (P00582 324-928 limits assumed): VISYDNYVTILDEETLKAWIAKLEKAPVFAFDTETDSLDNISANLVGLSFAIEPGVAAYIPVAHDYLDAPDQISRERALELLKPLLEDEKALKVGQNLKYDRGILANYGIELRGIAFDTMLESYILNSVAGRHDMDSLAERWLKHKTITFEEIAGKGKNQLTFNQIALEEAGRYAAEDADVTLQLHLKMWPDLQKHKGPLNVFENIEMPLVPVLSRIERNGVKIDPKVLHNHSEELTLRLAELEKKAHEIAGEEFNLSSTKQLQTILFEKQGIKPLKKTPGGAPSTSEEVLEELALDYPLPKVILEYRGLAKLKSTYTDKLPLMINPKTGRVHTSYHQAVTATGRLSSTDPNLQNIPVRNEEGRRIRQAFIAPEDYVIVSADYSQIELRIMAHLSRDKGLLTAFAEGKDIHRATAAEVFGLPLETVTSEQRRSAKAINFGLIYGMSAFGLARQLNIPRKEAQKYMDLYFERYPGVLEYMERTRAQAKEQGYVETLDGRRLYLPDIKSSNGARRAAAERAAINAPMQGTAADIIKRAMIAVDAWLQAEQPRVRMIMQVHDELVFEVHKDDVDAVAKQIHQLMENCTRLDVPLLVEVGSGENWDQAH

IC50: 3.4 µM
SMILES: Nc1ccn([C@H]2C[C@H](O)[C@@H](COP(=O)(O)OP(=O)(O)OP(=O)(O)O)O2)c(=O)n1 [dCTP]

— article PMC2709563 (Nucleic Acids Research, 2009)
